The test system of test [1] is ATM. The test is described as follows: Kinase activity of ATM immunoprecipitated from cells treated with NCS. It is filed as cell-based, human. The procedure:
(§1) For these experiments, 5X10^6 cells were washed in ice-cold phosphate buffered saline and lysed in 700 µl of 10 mM Tris-HCl (pH 7.5), 150 mM NaCl, 0.2% dodecyl maltoside (Sigma), 5 mM EDTA, 50 mM NaF, 2 mM phenylmethylsulfonylfluoride, 100 µM NaVO4, 2 µg/ml aprotonin (lysis buffer). Freshly prepared cell lysates were incubated for 2 hours at 4°C on a rotator with 10 µl of hybridoma supernatants. Fifty µl of magnetic beads coated with anti-mouse IgG (Dynabeads M-450, DYNAL, Oslo, Norway) were added and the mixture was further rotated at 4°C for 2 hours. Immune complexes were collected using a magnetic stand (DYNAL) and washed 3 times with lysis buffer. For Western blotting analysis, 1/3 of this mixture was loaded on a polyacrylamide-SDS gel which was later blotted onto a nitrocellulose membrane (Nitrocell MFF, Pharmacia Biotech, San Francisco, CA) as previously described [ref 8]. Immune complexes were washed twice with kinase buffer (50 mM Hepes, pH 7.5, 150 mM NaCl, 4 mM MnCl2, 6 mM MgCl2, 10% v/v glycerol, 1 mM DTT, 100 µM NaVO4). […]
Kinase activity was assayed using the p53-N47 substrate. The histogram presents quantitation of the data from the top panel (B). […]
U: untreated cells. The curve presents quantitation of the data from the top panel.

In test [2] the target is T1, ATM (Homo sapiens, UniProt Q13315).
T1 construct: endogenous in cells; host or cells: cultured cells, lysed and immunoprecipitated with anti-ATM monoclonal antibody
Briefly: ATM immune complex protein kinase assay (inhibition by wortmannin). The format is biochemical. The protocol:
as §1, with “NaVO4). Two hundred ng - 1 µg substrate, 10 µCi [32P]ATP and ATP to final concentration of 5 µM were added, and the reaction mixtures were incubated at 30°C for 3-15 minutes.” for “NaVO4).”
ATM immune complexes were incubated with various concentrations of the drug and washed with the reaction buffer before kinase activity was measured. […]

pIC50: −log10 of the molar value. Like-named read-outs stand apart in the source and are kept apart here.

T1 sequence (Q13315 whole entry): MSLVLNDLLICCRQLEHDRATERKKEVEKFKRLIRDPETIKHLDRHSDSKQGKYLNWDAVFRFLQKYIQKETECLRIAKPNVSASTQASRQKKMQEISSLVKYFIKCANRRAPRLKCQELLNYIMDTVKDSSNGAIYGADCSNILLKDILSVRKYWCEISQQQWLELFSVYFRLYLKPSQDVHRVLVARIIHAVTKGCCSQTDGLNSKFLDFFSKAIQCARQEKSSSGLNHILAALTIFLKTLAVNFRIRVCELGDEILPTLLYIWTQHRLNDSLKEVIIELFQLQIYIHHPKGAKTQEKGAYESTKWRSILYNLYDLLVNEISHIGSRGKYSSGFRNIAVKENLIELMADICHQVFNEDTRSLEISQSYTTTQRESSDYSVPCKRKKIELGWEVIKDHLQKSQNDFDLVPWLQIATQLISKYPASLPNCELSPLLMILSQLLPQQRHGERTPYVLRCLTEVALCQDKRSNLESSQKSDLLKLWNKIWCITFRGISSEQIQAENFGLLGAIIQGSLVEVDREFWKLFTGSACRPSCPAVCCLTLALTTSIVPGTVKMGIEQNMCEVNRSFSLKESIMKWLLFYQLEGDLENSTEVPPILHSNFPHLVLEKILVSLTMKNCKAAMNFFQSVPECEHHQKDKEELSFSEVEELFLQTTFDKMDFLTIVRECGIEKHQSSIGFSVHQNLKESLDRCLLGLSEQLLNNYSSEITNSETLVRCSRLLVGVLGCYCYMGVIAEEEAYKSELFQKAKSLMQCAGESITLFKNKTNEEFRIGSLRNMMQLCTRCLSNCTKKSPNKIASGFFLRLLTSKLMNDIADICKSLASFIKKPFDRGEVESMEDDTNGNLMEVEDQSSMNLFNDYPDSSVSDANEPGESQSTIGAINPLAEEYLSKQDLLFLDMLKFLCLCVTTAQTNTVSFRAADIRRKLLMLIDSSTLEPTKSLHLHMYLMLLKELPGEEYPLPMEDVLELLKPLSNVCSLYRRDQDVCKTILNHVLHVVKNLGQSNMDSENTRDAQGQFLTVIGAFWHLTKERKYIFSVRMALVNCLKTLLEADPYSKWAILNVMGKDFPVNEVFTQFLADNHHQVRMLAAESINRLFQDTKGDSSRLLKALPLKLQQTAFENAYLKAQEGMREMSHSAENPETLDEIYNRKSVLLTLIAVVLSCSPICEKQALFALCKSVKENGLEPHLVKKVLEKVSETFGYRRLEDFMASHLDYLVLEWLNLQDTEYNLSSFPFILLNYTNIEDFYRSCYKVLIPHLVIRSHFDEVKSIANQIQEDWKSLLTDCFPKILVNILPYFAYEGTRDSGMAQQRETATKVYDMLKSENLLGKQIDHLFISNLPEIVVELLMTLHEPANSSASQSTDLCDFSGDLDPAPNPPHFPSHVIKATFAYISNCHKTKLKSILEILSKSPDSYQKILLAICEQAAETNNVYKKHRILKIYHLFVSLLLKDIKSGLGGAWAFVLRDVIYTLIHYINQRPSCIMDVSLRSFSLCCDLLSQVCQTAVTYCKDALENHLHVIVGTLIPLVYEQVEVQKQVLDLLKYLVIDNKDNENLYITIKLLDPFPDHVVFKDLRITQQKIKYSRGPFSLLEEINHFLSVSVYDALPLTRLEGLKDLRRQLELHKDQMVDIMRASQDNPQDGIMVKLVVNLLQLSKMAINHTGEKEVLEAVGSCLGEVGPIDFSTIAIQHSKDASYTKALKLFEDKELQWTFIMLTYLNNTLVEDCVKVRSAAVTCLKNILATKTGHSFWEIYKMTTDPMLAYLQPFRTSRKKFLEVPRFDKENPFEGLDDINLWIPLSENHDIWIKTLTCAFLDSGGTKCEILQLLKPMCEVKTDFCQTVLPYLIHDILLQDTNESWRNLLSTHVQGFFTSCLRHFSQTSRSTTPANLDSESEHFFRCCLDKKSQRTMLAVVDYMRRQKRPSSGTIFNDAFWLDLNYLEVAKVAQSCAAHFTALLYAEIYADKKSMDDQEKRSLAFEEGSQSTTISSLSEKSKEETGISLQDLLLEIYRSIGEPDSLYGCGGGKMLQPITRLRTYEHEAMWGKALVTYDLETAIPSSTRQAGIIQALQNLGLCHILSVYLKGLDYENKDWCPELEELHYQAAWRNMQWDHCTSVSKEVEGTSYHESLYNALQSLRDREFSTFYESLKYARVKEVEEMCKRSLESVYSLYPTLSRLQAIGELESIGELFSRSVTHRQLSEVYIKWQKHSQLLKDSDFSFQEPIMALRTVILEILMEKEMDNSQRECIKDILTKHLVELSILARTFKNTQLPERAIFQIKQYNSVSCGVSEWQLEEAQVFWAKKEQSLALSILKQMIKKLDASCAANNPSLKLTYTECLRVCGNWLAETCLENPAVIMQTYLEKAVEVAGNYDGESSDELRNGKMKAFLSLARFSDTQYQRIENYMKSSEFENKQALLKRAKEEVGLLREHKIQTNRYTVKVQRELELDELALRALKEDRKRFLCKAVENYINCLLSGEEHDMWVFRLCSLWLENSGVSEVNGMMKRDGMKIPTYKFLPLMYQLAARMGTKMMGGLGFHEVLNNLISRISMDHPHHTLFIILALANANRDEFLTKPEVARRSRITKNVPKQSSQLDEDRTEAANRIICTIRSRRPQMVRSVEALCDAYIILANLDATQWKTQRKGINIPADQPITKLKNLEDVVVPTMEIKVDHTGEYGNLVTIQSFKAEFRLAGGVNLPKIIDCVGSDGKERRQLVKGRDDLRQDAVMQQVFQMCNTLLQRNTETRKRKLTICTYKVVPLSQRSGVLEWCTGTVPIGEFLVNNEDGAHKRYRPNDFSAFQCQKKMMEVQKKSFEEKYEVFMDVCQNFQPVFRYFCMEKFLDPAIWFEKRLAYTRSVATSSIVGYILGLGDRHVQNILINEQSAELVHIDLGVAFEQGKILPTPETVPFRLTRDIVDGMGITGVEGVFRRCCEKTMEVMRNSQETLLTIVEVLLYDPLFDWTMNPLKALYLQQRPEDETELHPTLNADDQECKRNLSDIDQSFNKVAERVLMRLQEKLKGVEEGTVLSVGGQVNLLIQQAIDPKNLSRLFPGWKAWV

For the compound neocarzinostatin [NCS], in the test with ATM [1] (nine experiments, ATM immunoprecipitated from cells after NCS treatment, p53-N47 substrate), the “maximal enhancement of ATM's activity compared to its basal activity” value is given as 4.4±0.8 fold. Also, the “time of second enhancement of ATM's activity following treatment” value with ATM [1] (time course after NCS (50 ng/ml), Figure 3B) is given as “about 120 minutes”.
In the case of `COC[C@H]1OC(=O)c2coc3c2[C@@]1(C)C1=C(C3=O)[C@@H]2CCC(=O)[C@@]2(C)C[C@H]1OC(C)=O` [wortmannin], the pIC50 against ATM [2] was 7.10; at ATM [2] (ATM immune complexes exposed to wortmannin for 30 minutes and washed before kinase assay, PHAS-I as substrate, activity normalized to amount of ATM protein, read-out: IC50 (sensitivity of ATM-associated kinase activity to wortmannin)) it was 7.00.

Broadly, the pIC50 is −log10 of the IC50, conventionally taken in molar units.
